The results in this text go back to patent US20200399262A1, “COMPOUNDS FOR INHIBITING PROTEIN DEGRADATION AND METHODS OF USE THEREOF IN THE TREATMENT OF CANCER” (PI Therapeutics Ltd, priority 2018, published 2020).

Some results are limits rather than exact numbers.

What all share (type): cell-based
The subject of one test is SK-MEL-28. Description: Cell viability panel, CyQUANT Direct. As to conditions: Homo sapiens, Melanoma, 48 hours, read-out: Compound EC50. Here is the method:
(§1) Cell viability panel studies. Cells were diluted in the corresponding ATCC recommended medium and dispensed in a 384-well plate, depending on the cell line used, at a density of 200-6400 cells per well. For each used cell line, the optimal cell density was used. Compound was serially diluted and 8 concentration (0.04-32 μM) were added to the cells for 72 h exposure. At t=end, of ATPlite 1Step™ (PerkinElmer) were used to calculate cell viability. Cell lines marked with asterisk were seeded 24 h prior to treatment in 96-well plates at the density range of 5,000-40,000 cells/well, according to duplication rate, in RPMI 1640 medium containing 10% fetal bovine serum and 2 mM L-glutamine. Compounds were diluted from 10 mM DMSO stock and treatment was applied at the range of 0.04-1 μM. Following incubation at 37° C. for 48 hours with increasing concentrations of the compounds, viability was determined with CyQUANT® Direct Assay Kit (Invitrogen). Output intensities were normalized to values after treatment with DMSO alone, and EC50 values were calculated using the absorbance measurements [time zero, (Tz), growth control, (C), plus the test growth at the four drug concentration levels (Ti)] as follows: [(Ti−Tz)/(C−Tz)]×100 for concentrations for which Ti>/=Tz; [(Ti−Tz)/Tz]×100 for concentrations for which Ti−<Tz.

The next test relates to TK-10. Description: Cell viability panel, CyQUANT Direct. As to conditions: Homo sapiens, Renal cancer, 48 hours, read-out: Compound EC50. Here is the method: as §1
For another test, the system named is NCI-H23. Description: Cell viability panel, CyQUANT Direct. As to conditions: Homo sapiens, Lung cancer, 48 hours, read-out: Compound EC50. As for the experimental part:
as §1

The next test relates to SN12C. Description: Cell viability panel, CyQUANT Direct. As to conditions: Homo sapiens, Renal cancer, 48 hours, read-out: Compound EC50. Here is the method:
as §1

The test system of a further test is NCI-H522. Description: Cell viability panel, CyQUANT Direct. As to conditions: Homo sapiens, Lung Cancer, 48 hours, read-out: Compound EC50. Here is the method: as §1
Another test has as its system MDA-MB-435. Description: Cell viability panel, CyQUANT Direct. As to conditions: Homo sapiens, Melanoma, 48 hours, read-out: Compound EC50. Here is the method:
as §1

The next test has as its system RXF-393. Description: Cell viability panel, CyQUANT Direct. As to conditions: Homo sapiens, Renal cancer, 48 hours, read-out: Compound EC50. Here is the method: as §1
The subject of a further test is MDA-MB-468. Description: Cell viability panel, CyQUANT Direct. As to conditions: Homo sapiens, Breast cancer, 48 hours, read-out: Compound EC50. Here is the method: as §1
A further test deals with LOX IMVI. Description: Cell viability panel, CyQUANT Direct. As to conditions: Homo sapiens, Melanoma, 48 hours, read-out: Compound EC50. As for the experimental part: as §1
Another test deals with UO-31. Description: Cell viability panel, CyQUANT Direct. As to conditions: Homo sapiens, Renal cancer, 48 hours, read-out: Compound EC50. As for the experimental part: as §1
The test system of the next test is HOP-92. Description: Cell viability panel, CyQUANT Direct. As to conditions: Homo sapiens, Lung cancer, 48 hours, read-out: Compound EC50. As for the experimental part:
as §1

The next test concerns OVCAR-8. Description: Cell viability panel, CyQUANT Direct. As to conditions: Homo sapiens, Ovarian Cancer, 48 hours, read-out: Compound EC50. As for the experimental part: as §1
Another test concerns M14. Description: Cell viability panel, CyQUANT Direct. As to conditions: Homo sapiens, Melanoma, 48 hours, read-out: Compound EC50. As for the experimental part: as §1
The test system of the next test is SNB-75. Description: Cell viability panel, CyQUANT Direct. As to conditions: Homo sapiens, CNS, 48 hours, read-out: Compound EC50. As for the experimental part:
as §1

A further test deals with KM-12. Description: Cell viability panel, CyQUANT Direct. As to conditions: Homo sapiens, KM12, Colon cancer, 48 hours, read-out: Compound EC50. As for the experimental part:
as §1

The next test deals with SK-MEL-5. Description: Cell viability panel, CyQUANT Direct. As to conditions: Homo sapiens, Melanoma, 48 hours, read-out: Compound EC50. As for the experimental part:
as §1

In a further test the test system is SF-295. Description: Cell viability panel, CyQUANT Direct. As to conditions: Homo sapiens, CNS, 48 hours, read-out: Compound EC50. Here is the method: as §1
The test system of a further test is HOP-62. Description: Cell viability panel, CyQUANT Direct. As to conditions: Homo sapiens, Lung cancer, 48 hours, read-out: Compound EC50. Here is the method:
as §1

The subject of another test is HT-29. Description: Cell viability panel, CyQUANT Direct. As to conditions: Homo sapiens, Colon cancer, 48 hours, read-out: Compound EC50. Here is the method:
as §1

In another test the test system is OVCAR-5. Description: Cell viability panel, CyQUANT Direct. As to conditions: Homo sapiens, Ovarian Cancer, 48 hours, read-out: Compound EC50. Here is the method:
as §1

The test system of a further test is SK-OV-3. Description: Cell viability panel, CyQUANT Direct. As to conditions: Homo sapiens, Ovarian, 48 hours, read-out: Compound EC50. As for the experimental part: as §1
For another test, the system named is U251. Description: Cell viability panel, CyQUANT Direct. As to conditions: Homo sapiens, U-251, CNS, 48 hours, read-out: Compound EC50. As for the experimental part:
as §1

The next test has as its system SF-268. Description: Cell viability panel, CyQUANT Direct. As to conditions: Homo sapiens, CNS, 48 hours, read-out: Compound EC50. Here is the method:
as §1

Another test concerns MDA-MB-231. Description: Cell viability panel, CyQUANT Direct. As to conditions: Homo sapiens, Breast Cancer, 48 hours, read-out: Compound EC50. As for the experimental part: as §1
Another test has as its system EKVX. Description: Cell viability panel, CyQUANT Direct. As to conditions: Homo sapiens, Lung cancer, 48 hours, read-out: Compound EC50. Here is the method:
as §1

The subject of the next test is UACC-62. Description: Cell viability panel, CyQUANT Direct. As to conditions: Homo sapiens, Melanoma, 48 hours, read-out: Compound EC50. Here is the method:
as §1

In another test the test system is SK-MEL-2. Description: Cell viability panel, CyQUANT Direct. As to conditions: Homo sapiens, Melanoma, 48 hours, read-out: Compound EC50. As for the experimental part:
as §1

In a further test the test system is CAKI-1. Description: Cell viability panel, CyQUANT Direct. As to conditions: Homo sapiens, Renal cancer, 48 hours, read-out: Compound EC50. Here is the method:
as §1

The test system of another test is MALME-3M. Description: Cell viability panel, CyQUANT Direct. As to conditions: Homo sapiens, Melanoma, 48 hours, read-out: Compound EC50. As for the experimental part: as §1
The next test concerns UACC-257. Description: Cell viability panel, CyQUANT Direct. As to conditions: Homo sapiens, Melanoma, 48 hours, read-out: Compound EC50. As for the experimental part: as §1
In the next test the test system is HCC-2998. Description: Cell viability panel, CyQUANT Direct. As to conditions: Homo sapiens, Colon cancer, 48 hours, read-out: Compound EC50. As for the experimental part:
as §1

The subject of a further test is IGR-OV1. Description: Cell viability panel, CyQUANT Direct. As to conditions: Homo sapiens, IGROV-1, Ovarian cancer, 48 hours, read-out: Compound EC50. Here is the method:
as §1

The next test deals with SNB-19. Description: Cell viability panel, CyQUANT Direct. As to conditions: Homo sapiens, CNS, 48 hours, read-out: Compound EC50. As for the experimental part: as §1
A further test relates to SF-539. Description: Cell viability panel, CyQUANT Direct. As to conditions: Homo sapiens, CNS, 48 hours, read-out: Compound EC50. As for the experimental part: as §1
A further test has as its system OVCAR-4. Description: Cell viability panel, CyQUANT Direct. As to conditions: Homo sapiens, Ovarian Cancer, 48 hours, read-out: Compound EC50. Here is the method:
as §1

The subject of the next test is NCI-H322M. Description: Cell viability panel, CyQUANT Direct. As to conditions: Homo sapiens, Lung cancer, 48 hours, read-out: Compound EC50. As for the experimental part:
as §1

A further test has as its system CCRF-CEM. Description: NCI60 screen cytotoxicity. As to conditions: Homo sapiens, Leukemia, read-out: Compound B1 EC50.

The term EC50 denotes the midpoint of the concentration-response curve. Turning to `CN(C)CCCS(=O)(=O)N1C/C(=C\c2ccc(C#N)cc2)C(=O)/C(=C/c2ccc(C#N)cc2)C1` [Compound AA], the EC50 in the test on SK-MEL-28 is below 300 nM; in the test with TK-10, 300 to 1000 nM; in the test on NCI-H23 it was 300 to 1000 nM; in the test with SN12C, below 300 nM; in the test with NCI-H522, below 300 nM; in the test with MDA-MB-435 it was below 300 nM. In addition, the EC50 in the test with RXF-393 is at least 1000 nM; in the test with MDA-MB-468, below 300 nM; in the test with LOX IMVI, below 300 nM; in the test on UO-31, 300 to 1000 nM; in the test with HOP-92, 300 to 1000 nM; in the test with OVCAR-8 it was below 300 nM. Besides, the half-maximal effective concentration (EC50) in the test on M14 was below 300 nM; in the test with SNB-75, 300 to 1000 nM; with KM-12, below 300 nM; with SK-MEL-5 it was below 300 nM; in the test with SF-295, below 300 nM; with HOP-62, 300 to 1000 nM. In addition, the EC50 with HT-29 was 300 to 1000 nM; in the test on OVCAR-5, below 300 nM; in the test with SK-OV-3, below 300 nM; in the test with U251, below 300 nM; with SF-268, below 300 nM; in the test with MDA-MB-231, below 300 nM. Moreover, the concentration giving a half-maximal response (EC50) in the test with EKVX was 300 to 1000 nM; in the test on UACC-62, below 300 nM; in the test on SK-MEL-2, below 300 nM; with CAKI-1, at least 1000 nM; in the test on MALME-3M, below 300 nM; in the test on UACC-257 it was 300 to 1000 nM. Further, the EC50 in the test with HCC-2998 is 300 to 1000 nM; in the test with IGR-OV1, below 300 nM; in the test on SNB-19, below 300 nM; in the test with SF-539 it was below 300 nM; in the test with OVCAR-4, 300 to 1000 nM; with NCI-H322M it was 300 to 1000 nM.
Turning to `CN(C)CC(=O)NCC(=O)N1C/C(=C\c2ccc(C#N)cc2)C(=O)/C(=C/c2ccc(C#N)cc2)C1` [Compound B1], the EC50 in the test with CCRF-CEM is below 300 nM.
